Values joined by “and” are separate entries in the source; they are usually repeats but may differ in a detail not shown here. Identical values can stand only once. Like-named read-outs stand apart in the source and are kept apart here. Marks after values point to notes of the source that are not given here.
Tests used:
[1] = tested on: tracheal secretion in mice; assay: Mouse phenol red excretion assay (tracheal secretion); type: in vivo, ICR mice; conditions: 1.0 g/kg/d*6 d, i.g. 6 d
Description: 50 male ICR mice, weighing about 21 g, were randomly divided into 5 groups: control group 1 (normal saline, NS), control group 2 (normal saline, NS), positive control group (ammonium chloride, 1 g/kg), drug group 1 (0.2 mg/ml of magnesium isoglycyrrhizinate liquid preparation for use in nebulizers, nebulizing for 30 min), drug group 2 (0.2 mg/ml of magnesium isoglycyrrhizinate liquid preparation for use in nebulizers, nebulizing for 15 min). The mice in control group 1 and the positive control group were intragastrically administered with the corresponding drugs (0.1 ml/10 g), the mice in control group 2 and the drug group 1 were aerosolizing administered with a nebulizer for 30 min, while the mice in drug group 2 were 15 min. The administration frequency was once a day for 6 consecutive days. Before the 6th administration, the mice were starved for 16-18 hours, only allowed for drinking water. After 30 minutes of administration, i.p. 1% phenol red physiological in saline solution 0.2 ml/10 g was injected and 30 minutes later, the mice were killed by cervical dislocation. […] Among them, each drug group was compared with the control group 2, ^ΔΔp<0.01.

[2] = tested on: COPD rats; assay: White blood cell count and cell classified comparison in BALF of COPD rats; type: in vivo, SD rats
Description: (§1) After modeling chronic obstructive pulmonary disease model induced by cigarette smoke inhalation, male SD rats were randomly divided into 6 groups according to the body weight: high dose tracheal instillation group (1.67 mg/ml of magnesium isoglycyrrhizinate, 100 μl/rat), low dose tracheal instillation group (1.67 mg/ml, 25 μl/rat), aerosolizing inhalation group, model group and blank control group, 10 rats in each group. During the intervention period, except that the control group and the model group were given normal saline, the other groups were successive administered every day, lasted for 15 days. During the administration period, the administration groups continued to be given with smoke stimulation after 30 minutes of administration, and the mental state, breathing, activity, hair luster, weight gain of the rats were recorded every day. 12 hour after the last administration, whole blood was taken from the rat eye for determination of white blood cell count and cell classified comparison. […] The right lung was ligated at the right main branch, and the left lung was lavaged with normal saline 2 ml×3 times. The recovery rate was about 80%. The bronchoalveolar lavage fluid (BALF) was prepared for the determination of white blood cell count and classified comparison (white blood cells, neutrophils, lymphocytes and monocytes). Finally, the right lung of rat was fixed with 10% formalin and HE stained, lung injury was observed under microscope, and pathological lesions were scored. All scores were accumulated, and the average score of each animal in each group was calculated (mean±SD).
(§2) The experimental result data was expressed in the form of mean±SD. One-way ANOVA combined with Post-Hoc (LSD method) was used to analyze the differences between groups. Statistical significance was expressed as a P value of less than 0.05. The model group was compared with the blank control group, #p<0.05, #p<0.01; each administration group of magnesium isoglycyrrhizinate was compared with the model group, *p<0.05, **p<0.01.

[3] = intravenous, 30.0 mg/kg, cited from earlier work
[4] = Body weight of COPD rats (cigarette smoke inhalation model); type: in vivo, SD rats; conditions: in g (unit assumed)
Description: as §1, §2

[5] = tested on: COPD rats; assay: White blood cell count and cell classified comparison in blood of COPD rats; type: in vivo, SD rats
Description: as §1, §2

[6] = Pharmacokinetic evaluation after inhalation/intragastric administration to rats; type: in vivo, SD rats; conditions: for Cmax/Dose: in (µg/L)/(mg/kg); for AUC(0-t)/Dose: in (µg·h/L)/(mg/kg); for MRT last: read-out: MRT(0-t); for half-life: read-out: t½ z (converted)
Description: Eight healthy male SD rats, weighing 223-252 g, were fed with standard formula granule feed of rats on time every day. The rats were fasted for 16 h before the experiment, and were refeeded at 4 h after the administration. Drinking water was free before, after and during the experiment. The rats were randomly divided into two groups, 4 rats in each group, and each rat was inhalation administrated with a single dose of magnesium isoglycyrrhizinate liquid preparation for use in nebulizers (2.5 mg/mL) and intragastric administrated with magnesium isoglycyrrhizinate inhaled preparation (5.0 mg/mL, the amount of isoglycyrrhizic acid is 4.486 mg/mL) respectively. Each rat in the inhalation administration group was given 200 μL of magnesium isoglycyrrhizinate liquid preparation for use in nebulizers (the actual dose given to the rat was 2.24-2.49 mg/kg). The dose in the intragastric administration group was 10.0 mg/kg. 0.2-0.3 mL of blood was taken from the fundus venous plexus before administration (0 h) and 0.0833 h, 0.25 h, 0.5 h, 1 h, 2 h, 4 h, 6 h, 8 h, 10 h, 24 h after administration. EDTA-K2 was used for anticoagulation, and the plasma was centrifuged. Then 50 μL was accurately measured, added with 10 μL internal standard solution to vortex and mixed, then added with 200 μL methanol, and mixed in high speed vortex mixer for 3 min, centrifuged for 10 min (4° C., 13000 rpm). The supernatant was collected, and 100 μL thereof was transferred to a 96-well plate. 50 μL of ultrapure water was added, vortexed, LC-MS/MS was used for detection, and the chromatogram was recorded.

[7] = tested on: COPD rats; assay: Pathological score of lung of COPD rats (HE staining); type: in vivo, SD rats; set-up: key to Pathological score, Comprehensive score / Pathological score, Emphysema / Pathological score, Inflammatory cell infiltration / Pathological score, Bronchial mucus secretion: lesion score 0 = none, 0.5 slight … 4 = very severe; group mean±SD
Description: as §1
Scoring indicators: (1) whether there was mucus and cell blockage in the small airway cavity; (2) whether the small airway epithelium had necrotic erosion; (3) small airway epithelial cells goblet cell metaplasia; (4) small airway epithelial cell squamous metaplasia; (5) small airway wall inflammation cell infiltration; (6) small airway wall fibrous connective tissue hyperplasia; (7) small airway wall smooth muscle hyperplasia; (8) small airway wall pigmentation; and (9) lung emphysema. Lesion score: according to the degree from light to heavy lesions, it was quantified as slight or very small amount for “0.5 point”, mild or small amount for “1 point”, moderate or more quantity amount for “2 points”, severe or plenty amount for “3 points”, very severe or large amount for “4 points”, and no obvious lesions for 0 point.
as §2

[8] = tested on: COPD rats; assay: General symptoms of COPD rats (cigarette smoke inhalation model); type: in vivo, SD rats; conditions: high dose and low dose tracheal infusion and nebulization, versus model group
Description: as §1, with “The recovery rate was about 80%. The bronchoalveolar lavage fluid (BALF) was prepared for the determination of white blood cell count and classified comparison (white blood cells, neutrophils, lymphocytes and monocytes).” left out

[9] = aerosolizing inhalation, 0.4 mg/ml, 30 min
[10] = high dose tracheal instillation, 1.67 mg/ml, 100 μl
[11] = low dose tracheal instillation, 1.67 mg/ml, 25 μl
[12] = male, SD, rat, plasma, inhaled or intranasal, inhalation, 2.4 mg/kg
[13] = male, SD, rat, plasma, po, intragastric, 10 mg/kg

For `Cl.N` [ammonium chloride], the “Amount of phenol red excretion” value [1] was 0.5924 ± 0.3781 µg/mL.

In the case of `CC1(C)[C@@H](O[C@H]2O[C@H](C(=O)[O-])[C@@H](O)[C@H](O)[C@H]2O[C@@H]2O[C@H](C(=O)[O-])[C@@H](O)[C@H](O)[C@H]2O)CC[C@]2(C)[C@H]3C(=O)C=C4[C@H]5C[C@@](C)(C(=O)O)CC[C@]5(C)CC[C@@]4(C)[C@]3(C)CC[C@@H]12.[Mg+2]` [magnesium isoglycyrrhizinate, magnesium (18α,20β)-20-carboxy-11-oxo-30-norolean-12-ene-3β-yl-2-O-β-D-pyranoglucuronyl-α-D-pyranoglucuronate], the Neutrophil count [2, 9] is reported as 57.83 ± 20.78 10/μl, the Percentage of neutrophils [2, 9] is reported as 38.83 ± 21.02% and the “White blood cell count” value [2, 9] is reported as 170.33 ± 55.17 10/μl. For the same compound, the Neutrophil count [2, 10] was 89.88 ± 21.57* 10/μl, the Percentage of neutrophils [2, 10] was 48.89 ± 9.69% and the “White blood cell count” value [2, 10] was 184.38 ± 32.15 10/μl. The Neutrophil count [2, 11] was 66.38 ± 25.46 10/μl, the Percentage of neutrophils [2, 11] was 38.08 ± 12.86% and the “White blood cell count” value [2, 11] was 172.50 ± 26.52 10/μl. The Cmax ([3]; N = 6, literature) was 354500 ng/mL, the “AUC(0-t)” value ([3]; literature) was 209591 ng·h/mL and the “AUC(0-t)/Dose” value ([3]; literature) was 6986. For the same compound, the “AUC(0-∞)” value ([3]; literature) was 212295 ng·h/mL, the CLz/F ([3]; literature) was 2355 mL/min/kg and the Cmax/Dose ([3]; literature) was 11817. The “MRT(0-t)” value ([3]; literature) was 1.71 h, the Tmax ([3]; literature) was 5 min and the t1/2 z ([3]; literature) was 2.06 h. The “Body weight, End weight” value [4, 9] was 360.11 ± 18.84**, the “Body weight, Initial weight” value [4, 9] was 319.22 ± 10.43** and the “Body weight, End weight” value [4, 10] was 358.20 ± 16.17**. The “Body weight, Initial weight” value [4, 10] was 324.6 ± 12.22**, the “Body weight, End weight” value [4, 11] was 350.80 ± 27.79** and the “Body weight, Initial weight” value [4, 11] was 317.60 ± 24.23**. For the same compound, the Neutrophil count [5, 9] was 123.67 ± 23.24** 10/μl, the Percentage of neutrophils [5, 9] was 11.05 ± 1.61** % and the “White blood cell count” value [5, 9] was 1123.33 ± 170.54 10/μl. For the same compound, the Neutrophil count [5, 10] was 153.25 ± 40.12* 10/μl, the Percentage of neutrophils [5, 10] was 11.31 ± 3.55* % and the “White blood cell count” value [5, 10] was 1395.13 ± 270.32 10/μl. For the same compound, the Neutrophil count [5, 11] was 155.13 ± 26.25* 10/μl, the Percentage of neutrophils [5, 11] was 13.80 ± 2.24* % and the “White blood cell count” value [5, 11] was 1135.13 ± 155.73 10/μl. The CLz/F ([6]; inhalation, 2.4 mg/kg) was 3.25 mL/min/kg and 3.25 ± 1.72 mL/min/kg, the t½ z ([6]; inhalation, 2.4 mg/kg) was 2.13 ± 0.69 h and the Cmax/Dose ([6]; inhalation, 2.4 mg/kg) was 1315 and 1315 ± 306. The “AUC(0-t)/Dose” value ([6]; inhalation, 2.4 mg/kg) was 6108 and 6108 ± 2577, the CLz/F ([6]; intragastric, 10 mg/kg) was 2700 mL/min/kg and the Cmax/Dose ([6]; intragastric, 10 mg/kg) was 2.73. The “AUC(0-t)/Dose” value ([6]; intragastric, 10 mg/kg) was 8.98, the Cmax ([6]; male, SD, rat, inhaled or intranasal, inhalation, liquid preparation for nebulizers 2.5 mg/mL, 200 μL, 2.4 mg/kg, plasma) was 3110 ng/mL and the AUC(0-inf) [6, 12] was 14600 ng·h/mL. It also gave an AUC(0-t) [6, 12] of 14600 ng·h/mL, a Tmax [6, 12] of 0.81 h and an MRT last [6, 12] of 3.52 h. For the same compound, the half-life [6, 12] was 2.13 h, the bioavailability ([6]; male, SD, rat, plasma, inhaled, inhalation compared with intravenous administration (literature), read-out: Relative F %) was 87% and the AUC(0-inf) [6, 13] was 102 ng·h/mL. For the same compound, the AUC(0-t) [6, 13] was 89.8 ng·h/mL, the Tmax [6, 13] was 1.75 h and the MRT last [6, 13] was 2.35 h. For the same compound, the half-life [6, 13] was 1.88 h, the Cmax ([6]; male, SD, rat, po, intragastric, 5.0 mg/mL, 10 mg/kg, plasma) was 27.3 ng/mL and the “Pathological score, Bronchial mucus secretion” value [7, 9] was 0.278 ± 0.363. For the same compound, the “Pathological score, Comprehensive score” value [7, 9] was 0.89 ± 0.65*, the “Pathological score, Emphysema” value [7, 9] was 0.222 ± 0.441 and the “Pathological score, Inflammatory cell infiltration” value [7, 9] was 0.389 ± 0.333**. The “Pathological score, Bronchial mucus secretion” value [7, 10] was 0.050 ± 0.158**, the “Pathological score, Comprehensive score” value [7, 10] was 0.90 ± 0.52* and the “Pathological score, Emphysema” value [7, 10] was 0.300 ± 0.422. The “Pathological score, Inflammatory cell infiltration” value [7, 10] was 0.450 ± 0.550*, the “Lung pathology of COPD rats (in words)” value ([7]; high dose, low dose tracheal infusion and aerosolizing inhalation groups) was “significantly reduce lung inflammation, improve bronchial wall function, reduce bronchial mucus secretion and improve emphysema” and the “Pathological score, Bronchial mucus secretion” value [7, 11] was 0.200 ± 0.350. For the same compound, the “Pathological score, Comprehensive score” value [7, 11] was 0.80 ± 0.50*, the “Pathological score, Emphysema” value [7, 11] was 0.150 ± 0.337 and the “Pathological score, Inflammatory cell infiltration” value [7, 11] was 0.400 ± 0.394**. For the same compound, the “General symptoms of COPD rats” value [8] was “relieved compared with the model group”.

From patent US11534398B2, “Inhaled preparation of isoglycyrrhizic acid or salt thereof, and use in preparing drugs for treating respiratory system diseases” (priority 2016, dated 2022)
